“Also recorded” adds a separate entry of the source.
Experiments:
HP (Ph− ALL PD-LTC) = assay: XTT cell viability, PD-LTC HP; details: increasing concentration up to 10 μM
Experimental: (§7) Each tested compound was dissolved in a suitable vehicle and cells were exposed to successive solutions containing an increasing concentration of each test compound, as well as a control sample containing no test compound. A range of 5 (or 10) concentrations were tested in triplicates starting from 1 μM. The potency of each test compound was assessed by cell viability using an XTT assay [53, 54]. The ratio of cell viability (CV %) was determined by calculating the average of each triplicate, normalizing to the average in case to the average of the control sample.
(§8) Standard deviation (STD) was calculated for each triplicate and the curve logarithmic equation was calculated for each curve.
(§9) Each compound was assayed against a panel of Patient-Derived Long-Term cultures (PD-LTCs) including: • 8. […] PH: primary Patient-Derived Long-Term Cultures (PD-LTCs) from Ph^+ ALL patients Ph+ ALL (p185-BCR-ABL) that are fully responsive to TKIs ˜30% of adult ALL patients harbor the Ph chromosome, that represent a high-risk group of ALL. • 10. […] HP: PD-LTCs derived from Ph− ALL patient (not harboring the Ph chromosome). HP was used as negative control. • 12. VM: derived from a Ph+ ALL patient harboring p210-BCR-ABL. • 13.
(§10) The dose-response curves for single agent treatments were generated in Prism 9 (GraphPad). Curve fitting was performed by nonlinear regression using the log(inhibitor) vs. normalized response—Variable slope model.

[1] = system: Ba/F3 cells expressing p185-BCR-ABL; assay: XTT cell viability / proliferation, Ba/F3 expressing p185-BCR-ABL; format: cell-based, murine; details: p185-BCR-ABL-Ba/F3, increasing concentration up to 10 μM
Experimental: (§1) • 1. Ba/F3 cells were obtained from the German Collection of Microorganisms and Cell Cultures (DSMZ, Braunschweig, Germany) and maintained in RPMI 1640 medium supplemented with 10% fetal calf serum (Invitrogen) containing 10 ng/ml of interleukin-3 (Cell Concepts, Umkirch, Germany). Ecotropic Phoenix cells and Rat-1 cells were cultured in Dulbecco's modified Eagle's medium supplemented with 10% fetal calf serum. GNF-2 (Sigma-Adrich, Steinheim, Germany) was dissolved in dimethyl sulfoxide and added at a final concentration of […]. Cell growth was assessed by dye exclusion using Trypan blue. Proliferation was assessed using the XTT proliferation kit (Roche, Mannheim, Germany), according to the manufacturer's instructions. • 2. Ba/F3: IL-3 dependent lymphatic murine pro B cell line. Ba/F3 cells expressing either p185-BCR-ABL1 (p185-BCR-ABL-Ba/F3) or p210-BCR-ABL (p210-BCR-ABL-Ba/F3). p185-BCR-ABL1 (activated kinases substitute for the IL-3 signaling and therefore render the cells IL3 independent. Ba/F3 cells expressing either p185-BCR-ABL (p185-Ba/F3) or p210-BCR-ABL (p210-Ba/F3). Ba/F3 cells obtained from the German Collection of Microorganisms and Cell Cultures (DSMZ, Braunschweig, Germany). • 3. Mutant transduced Ba/F3 cells (T315I-p185-BCR-ABL1 or T315I-p210-BCR-ABL1): Ba/F3 cells expressing either the mutated forms T315I-p185-BCR-ABL1 or T315I-p210-BCR-ABL1. • 4. WT-Sup-B15: A Ph+ ALL cell line harboring the p185-BCR-ABL. Sup-B15: established from the bone marrow of a child with acute lymphoblastic leukemia (B cell precursor ALL) in second relapse in 1984; described in the literature to carry the ALL-variant (m-BCR) of the BCR-ABL1 fusion gene (e1-a2) correct, because it results in the p185-BCR-ABL version. • 5. […] V617FJAK2 HEL: (Human erythroleukemia) is a growth factor independent erythroleukemic cell line established from the bone marrow of a patient with relapsed Hodgkin disease after autologous bone marrow transplantation (Martin P & Papayannopoulou T: Science 1982; 216:1233-1235). HEL cells display a block in differentiation at the level of common erythroid-megakaryocytic progenitor and have been commonly used as a model to study erythroid and megakaryocytic differentiation. • 7. Jurkat: an immortalized human T lymphocyte first derived from the peripheral blood of a child suffering from T cell leukemia. Jurkat cells are used to study acute T cell leukemia, T cell signaling, and the expression of various chemokine receptors susceptible to viral entry, particularly HIV.
(§2) FIGS. 1A and 1B: Effects of Compound 16 on Ba/F3 cells expressing either p185-BCR-ABL or T315I-p185-BCR-ABL. Cells were exposed to increasing concentration of Compound 16 [empty vehicle (0.0 μM+IL3), 2.5, 5.0 and 10.0 μM]. […] Cell viability (CV) was assessed using the XTT method as described in the experimental part. The means±SD of triplicates from one representative experiment out of three performed are given.
(§3) FIGS. 7A-C: Effects of Compound 16 on of Ba/F3 cells expressing WT-p185-BCR-ABL (FIG. 7A) and the mutant gatekeeper T315I-p185-BCR-ABL (FIG. 7B) by Compound 16. Cells were exposed to increasing concentrations of Compound 16.

Ph− V617FJAK2 HEL = assay: XTT cell viability, HEL; format: cell-based, human; details: increasing concentration up to 10 μM
Experimental: (§4) • 1. Ba/F3 cells were obtained from the German Collection of Microorganisms and Cell Cultures (DSMZ, Braunschweig, Germany) and maintained in RPMI 1640 medium supplemented with 10% fetal calf serum (Invitrogen) containing 10 ng/ml of interleukin-3 (Cell Concepts, Umkirch, Germany). Ecotropic Phoenix cells and Rat-1 cells were cultured in Dulbecco's modified Eagle's medium supplemented with 10% fetal calf serum. GNF-2 (Sigma-Adrich, Steinheim, Germany) was dissolved in dimethyl sulfoxide and added at a final concentration of […]. Cell growth was assessed by dye exclusion using Trypan blue. Proliferation was assessed using the XTT proliferation kit (Roche, Mannheim, Germany), according to the manufacturer's instructions. • 2. Ba/F3: IL-3 dependent lymphatic murine pro B cell line. […]

Sup-B15 (p185-BCR-ABL) = assay: XTT cell viability, Sup-B15 (WT-Sup-B15); format: cell-based, human
Experimental: as §1
(§5) FIG. 2: Effect of Compound 16 on leukemia cell lines (Jurkat, Sup-B15 and BV173). Cell viablility (CV) was determined following incubation of the 1 m cells/ml of each cell line with increasing concentration of the Compound 16 [empty vehicle (0.0 μM+IL3), 2.5, 5.0 and 10.0 μM]. CV was measured by the XTT method. The means±SD of triplicates from one representative experiment out of three performed are given.

PH (Ph+ ALL PD-LTC) = assay: XTT cell viability, PD-LTC PH; details: for antiproliferative response (in words): increasing concentration 0.5-10 μM
Experimental: as §7, §8, §9, §10

RT-Sup-B15 = assay: XTT cell viability, RT-Sup-B15; format: cell-based, human; details: RT-Sup-B15, increasing concentration up to 10 μM
Experimental: as §4

[2] = system: PINCO transfected Ba/F3 cells; assay: XTT cell viability, Ba/F3 transduced with empty vector (PINCO); format: cell-based, murine; details: increasing concentration up to 10 μM
Experimental: (§6) • 1. Ba/F3 cells were obtained from the German Collection of Microorganisms and Cell Cultures (DSMZ, Braunschweig, Germany) and maintained in RPMI 1640 medium supplemented with 10% fetal calf serum (Invitrogen) containing 10 ng/ml of interleukin-3 (Cell Concepts, Umkirch, Germany). Ecotropic Phoenix cells and Rat-1 cells were cultured in Dulbecco's modified Eagle's medium supplemented with 10% fetal calf serum. GNF-2 (Sigma-Adrich, Steinheim, Germany) was dissolved in dimethyl sulfoxide and added at a final concentration of […]. Cell growth was assessed by dye exclusion using Trypan blue. Proliferation was assessed using the XTT proliferation kit (Roche, Mannheim, Germany), according to the manufacturer's instructions. • 2. Ba/F3: IL-3 dependent lymphatic murine pro B cell line. Ba/F3 cells expressing either p185-BCR-ABL1 (p185-BCR-ABL-Ba/F3) or p210-BCR-ABL (p210-BCR-ABL-Ba/F3). p185-BCR-ABL1 (activated kinases substitute for the IL-3 signaling and therefore render the cells IL3 independent. Ba/F3 cells expressing either p185-BCR-ABL (p185-Ba/F3) or p210-BCR-ABL (p210-Ba/F3). Ba/F3 cells obtained from the German Collection of Microorganisms and Cell Cultures (DSMZ, Braunschweig, Germany). • 3. Mutant transduced Ba/F3 cells (T315I-p185-BCR-ABL1 or T315I-p210-BCR-ABL1): Ba/F3 cells expressing either the mutated forms T315I-p185-BCR-ABL1 or T315I-p210-BCR-ABL1. • 4. WT-Sup-B15: A Ph+ ALL cell line harboring the p185-BCR-ABL. Sup-B15: established from the bone marrow of a child with acute lymphoblastic leukemia (B cell precursor ALL) in second relapse in 1984; described in the literature to carry the ALL-variant (m-BCR) of the BCR-ABL1 fusion gene (e1-a2) correct, because it results in the p185-BCR-ABL version. • 5. […]
FIG. 11: Antiproliferative effect of Compound 16 on PINCO transfected Ba/F3 cells. […] Proliferation status was determined by the metabolic activity of cells given by the reduction rate of XTT to formazan. […]

[3] = system: Ba/F3 cells expressing T315I-p185-BCR-ABL; assay: XTT cell viability / proliferation, Ba/F3 expressing T315I-p185-BCR-ABL; format: cell-based, murine; details: for antiproliferative response (in words): T315I-p185-BCR-ABL-Ba/F3, increasing concentration up to 10 μM
Experimental: as §1, §2, §3

[4] = system: KÖ (Ph+T315I-p185-BCR-ABL ALL); assay: XTT cell viability, PD-LTC KÖ; format: cell-based, human
Jurkat = assay: XTT cell viability, Jurkat; format: cell-based, human; details: increasing concentration up to 10 μM
Experimental: as §6
as §5, with “The means±SD of triplicates from one representative experiment out of three performed are given.” left out

BV (Ph+ ALL PD-LTC) = assay: XTT cell viability, PD-LTC BV; format: cell-based, human; details: for antiproliferative response (in words): increasing concentration 0.5-10 μM; for induction of cell proliferation at high concentration (in words): concentration >5 μM (10 μM)
[5] = system: SATA5, pSTAT5, JAK2 and pJAK2; assay: Western blotting of HEL cells; format: cell-based, human; details: 500 nM
Experimental: FIG. 40: Western blot analysis of HEL cells using antibodies directed against the indicated proteins. Cells were exposed to increasing concentration of Compound 34 [vehicle (0.0 nM), 50, 100.0, 500.0, 1000.0, and 5000.0 nM].
Cells were harvested at the corresponding time intervals (0, 3, 6, 12, and 14 hours) on HELL cells. Anti-STAT5, anti-pSTAT5, anti-JAK2 and anti-pJAK2 antibodies were used.

Row | Structure (SMILES) | antiproliferative response (in words) (HP (Ph− ALL PD-LTC)) | antiproliferative response (in words) [1] | antiproliferative response (in words) (PH (Ph+ ALL PD-LTC)) | antiproliferative response (in words) [3] | antiproliferative response (in words) (BV (Ph+ ALL PD-LTC)) | further results
1 | O=C(Nc1ccc(OC(F)(F)Cl)cc1)c1cnc(N2CC[C@@H](O)C2)c(-c2cc[nH]n2)c1 [ABL001, Asciminib, reference compound] | irresponsiveness | – | – | – | – | –
2 | CS(=O)(=O)N1CCN(c2cc(Nc3ccc(OC(F)(F)F)cc3)ncn2)CC1 [Compound 30] | – | increased sensitivity | increased sensitivity; also recorded: PH>BV | concentration dependent inhibition; also recorded: weakly responsive | increased sensitivity | antiproliferative response (in words) (Ph− V617FJAK2 HEL): weakly responsive; also recorded: negligible at low concentrations (<1 μM); also recorded: weak inhibition is noticed at concentration that ranges between 2.5-10 μM; antiproliferative response (in words) (Sup-B15 (p185-BCR-ABL); Sup-B15 / WT-Sup-B15, increasing concentration up to 10 μM): responsive; also recorded: twice as sensitive; also recorded: increased sensitivity; antiproliferative response (in words) (RT-Sup-B15): irresponsive; also recorded: weakly responsive; antiproliferative response (in words) [2]: weakly responsive; cell viability (CV) at plateau ([3]; 4 and 10.0 μM): ~16%; antiproliferative response (in words) ([4]; increasing concentration up to 10 μM): weak inhibition is noticed at concentration that ranges between 2.5-10 μM; also recorded: negligible at low concentrations (<1 μM); antiproliferative response (in words) (Jurkat): irresponsive
3 | Cc1ccc(S(=O)(=O)N2CCN(c3cc(Nc4ccc(OC(F)(F)F)cc4)ncn3)CC2)cc1 [Compound 31] | negligible | negligible | significantly inhibited; also recorded: increased sensitivity; also recorded: enhanced activity | negligible | significantly inhibited; also recorded: increased sensitivity; also recorded: enhanced activity | antiproliferative response (in words) (Ph− V617FJAK2 HEL): negligible; induction of cell proliferation at high concentration (in words) (PH (Ph+ ALL PD-LTC); concentration >5 μM (10 μM)): induction of cell proliferation; also recorded: growth induction; induction of cell proliferation at high concentration (in words) (BV (Ph+ ALL PD-LTC)): induction of cell proliferation; also recorded: growth induction; induction of cell proliferation at high concentration (in words) (BV (Ph+ ALL PD-LTC); listed as −31): growth induction
4 | COc1ccc(C(=O)N2CCN(c3cc(Nc4ccc(OC(F)(F)F)cc4)ncn3)CC2)c(OC)c1 [Compound 32] | – | – | enhanced activity; also recorded: good inhibitory effect | – | enhanced activity; also recorded: milder | –
5 | O=C(c1cccc(-c2cc(Nc3ccc(OC(F)(F)F)cc3)ncn2)c1)N1CCN(c2ccc(C(F)(F)F)cn2)CC1 [Compound 34] | highly resistant; also recorded: negligible; also recorded: some response at higher doses | most sensitive | most responsive; also recorded: twice as sensitive | least responsive; also recorded: irresponsive | more effective in inhibiting the proliferation BV than KÖ | IC50 (Sup-B15 (p185-BCR-ABL); WT-Sup-B15, Table 1): 28.6 µM; IC50 (PH (Ph+ ALL PD-LTC); Table 1): 0.13 µM; antiproliferative response (in words) (RT-Sup-B15): irresponsive; also recorded: negligible; antiproliferative response (in words) [2]: intermediately responsive; also recorded: next in response; IC50 ([4]; Table 1): 2.37 µM; antiproliferative response (in words) (Jurkat): irresponsive; also recorded: negligible; IC50 (BV (Ph+ ALL PD-LTC); Table 1): 0.45 µM; level of expression of SATA5, pSTAT5, JAK2 and pJAK2 (in words) [5]: reduction in the level of expression
6 | Cc1ccc(NC(=O)c2ccc(CN3CCN(C)CC3)cc2)cc1Nc1nccc(-c2cccnc2)n1 [Imatinib, reference compound] | irresponsiveness | – | – | – | – | –
7 | Cc1cn(-c2cc(NC(=O)c3ccc(C)c(Nc4nccc(-c5cccnc5)n4)c3)cc(C(F)(F)F)c2)cn1 [Nilotinib, reference compound] | irresponsiveness | – | – | – | – | –

From patent publication US20250228851A1, “ALLOSTERIC INHIBITOR COMPOUNDS FOR OVERCOMING CANCER RESISTANCE” (priority 2021, published 2025)
